Assay results published in US12252470B2, “Lipids and nanoparticle compositions thereof” (Generation Bio Co., priority 2020, dated 2025).

Assays:
[1] = system: ceDNA-luciferase (ceDNA-luc); assay: In vivo ceDNA-luc expression by IVIS imaging after IV dosing of LNPs; set-up: species or system CD-1 mice; conditions: for luciferase expression and/or activity, rank among lipids tested: Studies A and B; for luciferase expressions and/or activity compared to positive control SS-OP ceDNA LNPs: Study A, vs LNPs 1, 2 and 7-12 (SS-OP), FIG. 1; for luciferase expressions and/or activity compared to positive control SS-OP ceDNA LNPs / luciferase activity compared to positive control SS-OP ceDNA LNP / luciferase expression and/or activity compared to positive control SS-OP ceDNA LNP / luciferase expressions and/or activity compared to SS-OP LNP: Day 4; for luciferase expressions and/or activity compared to positive control SS-OP ceDNA LNPs / luciferase activity compared to positive control SS-OP ceDNA LNP: 0.25 mg/kg IV once on Day 0; for luciferase activity compared to positive control SS-OP ceDNA LNP: Study B, vs LNP 13 (SS-OP), FIG. 2; for luciferase expression and/or activity compared to positive control SS-OP ceDNA LNP: Study C, at both 25 mg/kg and 1 mg/kg, vs LNP 19 (SS-OP), FIG. 3; for luciferase expressions and/or activity compared to SS-OP LNP: 0.25 mg/kg IV
Experimental: Lipid nanoparticles (LNP) were prepared at a total lipid to ceDNA weight ratio of approximately 10:1 to 30:1. Briefly, an ionizable lipid of the present invention, a non-cationic lipid (e.g., distearoylphosphatidylcholine (DSPC)), a component to provide membrane integrity (such as a sterol, e.g., cholesterol) and a conjugated lipid molecule (such as a PEG-lipid, e.g., 1-(monomethoxy-polyethyleneglycol)-2,3-dimyristoylglycerol, with an average PEG molecular weight of 2000 (“PEG-DMG”)), were solubilized in alcohol (e.g., ethanol) at a molar ratio of, for example, 50:10:37:3 or 20:40:38:2. The ceDNA was diluted to a desired concentration in buffer solution. For example, the ceDNA were diluted to a concentration of 0.1 mg/ml to 0.25 mg/ml in a buffer solution comprising sodium acetate, sodium acetate and magnesium chloride, citrate, malic acid, or malic acid and sodium chloride. In one example, the ceDNA was diluted to 0.2 mg/mL in 10 to 50 mM citrate buffer, pH 4. The alcoholic lipid solution was mixed with ceDNA aqueous solution using, for example, syringe pumps or an impinging jet mixer, at a ratio of about 1:5 to 1:3 (vol/vol) with total flow rates above 10 ml/min. In one example, the alcoholic lipid solution was mixed with ceDNA aqueous at a ratio of about 1:3 (vol/vol) with a flow rate of 12 ml/min. The alcohol was removed, and the buffer was replaced with PBS by dialysis. Alternatively, the buffers were replaced with PBS using centrifugal tubes. Alcohol removal and simultaneous buffer exchange were accomplished by, for example, dialysis or tangential flow filtration. The obtained lipid nanoparticles are filtered through a 0.2 µm pore sterile filter.
In one study, lipid nanoparticles comprising exemplary ceDNAs were prepared using a lipid solution comprising SS-OP, DSPC, Cholesterol and DMG-PEG2000 (mol ratio 50:10:37:3) as control. In some examples, a tissue target moiety like N-Acetylgalactosamine (GalNAc) was included. A GalNAc moiety such as tri-antennary GalNAc (GalNAc3) or tetra-antennary GalNAc (GalNAc4) can be synthesized as known in the art (see, WO2017/084987 and WO2013/166121) and chemically conjugated to lipid or PEG as well-known in the art (see, Resen et al., J. Biol. Chem. (2001) “Determination of the Upper Size Limit for Uptake and Processing of Ligands by the Asialoglycoprotein Receptor on Hepatocytes in Vitro and in Vivo” […]). Aqueous solutions of ceDNA in buffered solutions were prepared. The lipid solution and the ceDNA solution were mixed using an in-house procedure on a NanoAssembler at a total flow rate of 12 mL/min at a lipid to ceDNA ratio of 1:3 (v/v).
(§1) Species (number, sex, age): CD-1 mice (N=65 and 5 spare, male, about 4 weeks of age at arrival).
(§2) Dose Administration: Test articles (LNPs: ceDNA-Luc) were dosed at 5 mL/kg on Day 0 for Groups 1-38 by intravenous administration to lateral tail vein.
• Luciferin stock powder was stored at nominally −20° C. • Stored formulated luciferin in 1 mL aliquots at 2-8° C. protect from light. • Formulated luciferin was stable for up to 3 weeks at 2-8° C., protected from light and stable for about 12 hrs at room temperature (RT). • Dissolved luciferin in PBS to a target concentration of 60 mg/mL at a sufficient volume and adjusted to pH=7.4 with 5-M NaOH (about 0.5 μl/mg luciferin) and HCl (about 0.5 μL/mg luciferin) as needed. • Prepared the appropriate amount according to protocol including at least a about 50% overage. […]

[2] = Tolerability in mice as measured by change in body weight; type: in vivo; conditions: body weight at Day 1, 0.25 mg/kg IV
Experimental: as §1
Clinical Observations: Clinical observations were performed about 1, about 5 to about 6 and about 24 hours post the Day 0 Test Material dose. Additional observations were made per exception. Body weights for all animals, as applicable, were recorded on Days 0, 1, 2, 3, 4 & 7 (prior to euthanasia). Additional body weights were recorded as needed.
as §2

[3] = Study D, control Ionizable Lipid A (LNP 22), FIG. 4B
[4] = Study D, vs LNP 23 (SS-OP), FIG. 4A
[5] = Study E, outlier data point in LNP 30 excepted, FIG. 5B
[6] = Study E, vs LNP 27 (SS-OP), FIG. 5A

Row | Structure (SMILES) | luciferase expressions and/or activity compared to positive control SS-OP ceDNA LNPs [1] | luciferase activity compared to positive control SS-OP ceDNA LNP [1] | tolerability (change in body weight) [2, 3] | luciferase expressions and/or activity compared to SS-OP LNP [1, 4] | tolerability (change in body weight) [2, 5] | luciferase expressions and/or activity compared to SS-OP LNP [1, 6] | other results
1 | CCCCCCCC/C=C\CCCCCCCC(=O)Oc1ccc(CC(=O)OCCC2CCN(CCSSCCN3CCC(CCOC(=O)Cc4ccc(OC(=O)CCCCCCCC(=O)OC(CCCCCCCC)CCCCCCCC)cc4)CC3)CC2)cc1 [Lipid 1, 1-(heptadecan-9-yl) 9-(4-(2-(2-(1-(2-((2-(4-(2-(2-(4-(oleoyloxy)phenyl)acetoxy)ethyl)piperidin-1-yl)ethyl)disulfaneyl)ethyl)piperidin-4-yl)ethoxy)-2-oxoethyl)phenyl) nonanedioate] | equivalent or higher | equivalent or higher |  |  |  |  | luciferase expression and/or activity, rank among lipids tested [1]: highest; luciferase expression and/or activity compared to positive control SS-OP ceDNA LNP [1]: higher
2 | CCCCCCCCCOC(=O)CCCC(=O)Oc1ccc(CC(=O)OCCC2CCN(CCSSCCN3CCC(CCOC(=O)Cc4ccc(OC(=O)CCCCCCCC(=O)OC(CCCCCCCC)CCCCCCCC)cc4)CC3)CC2)cc1 [Lipid 2, 1-(heptadecan-9-yl) 9-(4-(2-(2-(1-(2-((2-(4-(2-(2-(4-((5-(nonyloxy)-5-oxopentanoyl)oxy)phenyl)acetoxy)ethyl)piperidin-1-yl)ethyl)disulfaneyl)ethyl)piperidin-4-yl)ethoxy)-2-oxoethyl)phenyl) nonanedioate] | equivalent or higher | equivalent or higher |  |  |  |  | 
3 | CCCCCCCCCOC(=O)CCCCCCCC(=O)Oc1ccc(CC(=O)OCCC2CCN(CCSSCCN3CCC(CCOC(=O)Cc4ccc(OC(=O)CCCCCCCC(=O)OC(CCCCCCCC)CCCCCCCC)cc4)CC3)CC2)cc1 [Lipid 3, 1-(heptadecan-9-yl) 9-(4-(2-(2-(1-(2-((2-(4-(2-(2-(4-((9-(nonyloxy)-9-oxononanoyl)oxy)phenyl)acetoxy)ethyl)piperidin-1-yl)ethyl)disulfaneyl)ethyl)piperidin-4-yl)ethoxy)-2-oxoethyl)phenyl) nonanedioate] | equivalent or higher | equivalent or higher |  |  |  |  | luciferase expression and/or activity, rank among lipids tested [1]: highest; luciferase expression and/or activity compared to positive control SS-OP ceDNA LNP [1]: higher
4 | CCCCCCCCC(CCCCCCCC)OC(=O)CCCCCCCC(=O)Oc1ccc(CC(=O)OCCC2CCN(CCSSCCN3CCC(CCOC(=O)Cc4ccc(OC(=O)CCCCCCCC(=O)OC(CCCCCCCC)CCCCCCCC)cc4)CC3)CC2)cc1 [Lipid 5, O′1,O1-((((((disulfanediylbis(ethane-2,1-diyl))bis(piperidine-1,4-diyl))bis(ethane-2,1-diyl))bis(oxy))bis(2-oxoethane-2,1-diyl))bis(4,1-phenylene)) 9,9′-di(heptadecan-9-yl) di(nonanedioate)] | equivalent or higher | equivalent or higher |  |  |  |  | 
5 | CCCCCCCC/C=C\CCCCCCCC(=O)Oc1ccc(CC(=O)OCCC2CCN(CCSSCCN3CCC(CCOC(=O)Cc4ccc(OC(=O)CCCCCCCC(=O)OC(CC)CCCCCCCC)cc4)CC3)CC2)cc1 (stereo not drawn) [Lipid 6, 1-(4-(2-(2-(1-(2-((2-(4-(2-(2-(4-(oleoyloxy)phenyl)acetoxy)ethyl)piperidin-1-yl)ethyl)disulfaneyl)ethyl)piperidin-4-yl)ethoxy)-2-oxoethyl)phenyl) 9-(undecan-3-yl) nonanedioate] |  |  | did not cause changes in body weight | equivalent or higher |  |  | 
6 | CCCCCCCC/C=C\CCCCCCCC(=O)Oc1ccc(CC(=O)OCCC2CCN(CCSSCCN3CCC(CCOC(=O)Cc4ccc(OC(=O)CCCCCCCC(=O)OC(CCCC)CCCCCCCC)cc4)CC3)CC2)cc1 (stereo not drawn) [Lipid 7, 1-(4-(2-(2-(1-(2-((2-(4-(2-(2-(4-(oleoyloxy)phenyl)acetoxy)ethyl)piperidin-1-yl)ethyl)disulfaneyl)ethyl)piperidin-4-yl)ethoxy)-2-oxoethyl)phenyl) 9-(tridecan-5-yl) nonanedioate] |  |  | did not cause changes in body weight | equivalent or higher |  |  | 
7 | CCCCCCCC/C=C\CCCCCCCC(=O)Oc1ccc(CC(=O)OCCC2CCN(CCSSCCN3CCC(CCOC(=O)Cc4ccc(OC(=O)CCCCCCCC(=O)OC(CCCCCC)CCCCCCCC)cc4)CC3)CC2)cc1 (stereo not drawn) [Lipid 8, 1-(4-(2-(2-(1-(2-((2-(4-(2-(2-(4-(oleoyloxy)phenyl)acetoxy)ethyl)piperidin-1-yl)ethyl)disulfaneyl)ethyl)piperidin-4-yl)ethoxy)-2-oxoethyl)phenyl) 9-(pentadecan-7-yl) nonanedioate] |  |  | did not cause changes in body weight | equivalent or higher |  |  | 
8 | CCCCCCCCCOC(=O)CCCCCCCC(=O)Oc1ccc(CC(=O)OCCC2CCN(CCSSCCN3CCC(CCOC(=O)Cc4ccc(OC(=O)CCCCCCCC(=O)OC(CC)CCCCCCCC)cc4)CC3)CC2)cc1 (stereo not drawn) [Lipid 9, 1-nonyl 9-(4-(2-oxo-2-(2-(1-(2-((2-(4-(2-(2-(4-((9-oxo-9-(undecan-3-yloxy)nonanoyl)oxy)phenyl)acetoxy)ethyl)piperidin-1-yl)ethyl)disulfaneyl)ethyl)piperidin-4-yl)ethoxy)ethyl)phenyl) nonanedioate] |  |  |  |  | did not cause significant changes in body weight | equivalent or higher | 
9 | CCCCCCCCCOC(=O)CCCCCCCC(=O)Oc1ccc(CC(=O)OCCC2CCN(CCSSCCN3CCC(CCOC(=O)Cc4ccc(OC(=O)CCCCCCCC(=O)OC(CCCC)CCCCCCCC)cc4)CC3)CC2)cc1 (stereo not drawn) [Lipid 10, 1-nonyl 9-(4-(2-oxo-2-(2-(1-(2-((2-(4-(2-(2-(4-((9-oxo-9-(tridecan-5-yloxy)nonanoyl)oxy)phenyl)acetoxy)ethyl)piperidin-1-yl)ethyl)disulfaneyl)ethyl)piperidin-4-yl)ethoxy)ethyl)phenyl) nonanedioate] |  |  |  |  | did not cause significant changes in body weight | equivalent or higher | 
10 | CCCCCCCCCOC(=O)CCCCCCCC(=O)Oc1ccc(CC(=O)OCCC2CCN(CCSSCCN3CCC(CCOC(=O)Cc4ccc(OC(=O)CCCCCCCC(=O)OC(CCCCCC)CCCCCCCC)cc4)CC3)CC2)cc1 (stereo not drawn) [Lipid 11, 1-nonyl 9-(4-(2-oxo-2-(2-(1-(2-((2-(4-(2-(2-(4-((9-oxo-9-(pentadecan-7-yloxy)nonanoyl)oxy)phenyl)acetoxy)ethyl)piperidin-1-yl)ethyl)disulfaneyl)ethyl)piperidin-4-yl)ethoxy)ethyl)phenyl) nonanedioate] |  |  |  |  | did not cause significant changes in body weight | equivalent or higher | 
